Like-named read-outs stand apart in the source and are kept apart here.
Tests used:
RET alterations in ctDNA = assay: ctDNA profiling (1021-gene NGS panel); type: in vivo, human; conditions: Cycle 1 Day 28, of 23 patients
Experimental: A retrospective analysis of circulating tumor DNA (ctDNA) profiling was performed using longitudinal plasma samples obtained at baseline, Cycle 1 Day 28, and post-progressive disease. At baseline, blood samples from all patients were subjected for NGS. Among them, 67 (54.9%) patients had detectable RET alterations in ctDNA, including KIF5B-RET (51/122, 41.8%), CCDC6-RET (5/122, 4.1%), NCOA4-RET (3/122, 2.5%), RET^M918T mutation (7/122, 5.7%) and other RET variation (1/122, 0.8%).
For molecular profiling, plasma samples were collected at baseline, Cycle 1 Day 28, and post-progressive disease, and the ctDNA were isolated for analysis. Gene alteration status was analyzed at a central laboratory using a validated, commercially available 1021-gene NGS panel (GenePlus, Beijing, China).

[1] = tested on: Baf3-CCDC6-RET^M918T xenograft; assay: Tumor xenograft model; type: in vivo, BALB/c nude mice; conditions: 9 days
Experimental: (§1) All procedures relating to animal handling, care, and treatment were performed according to the Beijing Laboratory Animal Management Regulations. 6-week-old male BALB/c nude mice were inoculated subcutaneously into the flank with Baf3-CCDC6-RET^WT (5*10^6 cells/ 0.1 mL/ each), Baf3-CCDC6-RET^M918T (5*10^6 cells/0.1 mL/each), Baf3-CCDC6-RET^V804M (5*10^6 cells/ 0.1 mL/ each), or HEK293T-KIF5B-RET^V804M (5*10^6 cells/ 0.1 mL/ each). Mice were randomized by tumor size into groups of 10 to 12 when tumor volume reached approximately 100-150 mm^3. […] Tumor size and body weight were measured two times each week, and tumor volume was calculated with the following formula: [length × (width)^2]/ 2. Statistical significance was calculated by using two-way ANOVA test to assess the difference in tumor volumes between the control (vehicle-treated) and treatment groups.

[2] = tested on: Baf3-CCDC6-RET^V804M xenograft; assay: Tumor xenograft model; type: in vivo, BALB/c nude mice; conditions: 9 days
Experimental: as §1

[3] = tested on: Baf3-CCDC6-RET^WT xenograft; assay: Tumor xenograft model; type: in vivo, BALB/c nude mice
Experimental: as §1

[4] = tested on: HEK293T-KIF5B-RET^V804M xenograft; assay: Tumor xenograft model; type: in vivo, BALB/c nude mice; conditions: 14 days
Experimental: as §1

cardiovascular system = assay: Cardiovascular safety pharmacology; type: in vivo; conditions: males 2, 4, 6 mg/kg; females 4, 8, 12 mg/kg oral
Experimental: In the safety pharmacological study of cardiovascular effects, four male and four female beagles with buried implants were selected. […] The animals were evaluated by cage-side and detailed clinical observations, electrocardiogram, heart rate, body temperature and blood pressure.

Pharmacokinetics in rats = type: in vivo, SD rats
[5] = Acute toxicity, single oral gavage; type: in vivo; conditions: SD, rat, in vivo, oral, read-out: MTD, single dose
SD rats [6] = assay: Acute toxicity, single oral gavage; type: in vivo; conditions: acute toxicity study in SD rats
[7] = 28-day repeat-dose toxicity; type: in vivo; conditions: SD, rat, plasma, po; for AUC(0-t): read-out: AUClast at STD10, day 28; for Cmax: read-out: Cmax at STD10, day 28
SD rats [8] = assay: 28-day repeat-dose toxicity; type: in vivo
rat bone marrow cells = assay: In vivo bone marrow micronucleus test
Experimental: The bone marrow cell micronucleus test was positive in male rats at ≥100 mg/kg/day and in female rats at ≥300 mg/kg/day.

[9] = high-dose study, 10 mg/kg (so in the source)
[10] = both sexes, SD, rat, plasma, iv, 1 mg/kg i.v.
[11] = both sexes, SD, rat, plasma, po, gavage 5 mg/kg
[12] = both sexes, SD, rat, plasma, po, gavage 20 mg/kg
[13] = both sexes, SD, rat, plasma, po, gavage 50 mg/kg
[14] = preclinical SD rat repeated administration

Q: With `COc1ccc(CN2C3CC2CN(c2ccc(-c4cc(N5CC(C)(O)C5)cn5ncc(C#N)c45)cn2)C3)cn1` [SY-5007, 6-(3-hydroxy-3-methylazetidin-1-yl)-4-(6-(6-((6-methoxypyridin-3-yl)methyl)-3,6-diazabicyclo[3.1.1]heptan-3-yl)pyridin-3-yl)pyrazolo[1,5-a]pyridine-3-carbonitrile] as the compound, how does the “Patients with complete RET clearance in ctDNA” value (RET alterations in ctDNA) read?
A: 21 patients

Q: What about the TGI ([1]; 10 mg/kg oral) of the same compound?
A: 12.4%

Q: And the TGI ([1]; 20 mg/kg oral)?
A: 40.9%

Q: And the TGI ([1]; 40 mg/kg oral)?
A: 93.0%

Q: What about the TGI ([2]; 10 mg/kg oral) of the same compound?
A: 35.4%

Q: What about the TGI ([2]; 20 mg/kg oral) of the same compound?
A: 85.3%

Q: What about the TGI ([2]; 40 mg/kg oral) of the same compound?
A: 109%

Q: And the TGI ([3]; 3 mg/kg twice daily, 13 days)?
A: 59.2%

Q: What about the TGI ([3]; 6 mg/kg twice daily, 13 days) of the same compound?
A: 80.1%

Q: And the TGI ([3]; 12 mg/kg twice daily, 13 days)?
A: 93.5%

Q: What about the TGI [3, 9] of the same compound?
A: 112%

Q: And the “Tumor regression rate (REG)” value [3, 9]?
A: 97.3%

Q: And the TGI ([3]; high-dose study, 20 mg/kg)?
A: 107%

Q: And the “Tumor regression rate (REG)” value ([3]; high-dose study, 20 mg/kg)?
A: 57.7%

Q: What about the “Tumor regression rate (REG)” value ([3]; high-dose study, 40 mg/kg (so in the source)) of the same compound?
A: 0%

Q: And the TGI ([4]; 10 mg/kg twice daily)?
A: 40.7%

Q: And the TGI ([4]; 20 mg/kg twice daily)?
A: 70.3%

Q: And the TGI ([4]; 40 mg/kg twice daily)?
A: 94.1%

Q: And the Cardiovascular effects (cardiovascular system)?
A: None of the changes were found to be related to the study drug

Q: What about the clearance (Pharmacokinetics in rats; [10]) of the same compound?
A: 3.42 mL/min/kg

Q: And the half-life (Pharmacokinetics in rats; [10])?
A: 3.34 h

Q: What about the Vd (Pharmacokinetics in rats; both sexes, SD, rat, plasma, iv, 1 mg/kg i.v., read-out: Vss) of the same compound?
A: 0.697 L/kg

Q: What about the AUC(0-inf) (Pharmacokinetics in rats; [11]) of the same compound?
A: 11.9 µg·h/mL

Q: What about the Cmax (Pharmacokinetics in rats; [11]) of the same compound?
A: 2190 ng/mL

Q: What about the AUC(0-inf) (Pharmacokinetics in rats; [12]) of the same compound?
A: 48.1 µg·h/mL

Q: And the Cmax (Pharmacokinetics in rats; [12])?
A: 7150 ng/mL

Q: What about the AUC(0-inf) (Pharmacokinetics in rats; [13]) of the same compound?
A: 112 µg·h/mL

Q: And the Cmax (Pharmacokinetics in rats; [13])?
A: 12600 ng/mL

Q: And the half-life (Pharmacokinetics in rats; both sexes, SD, rat, plasma, po, gavage 5-50 mg/kg)?
A: 3.61 to 4.49 h

Q: And the MRT inf (Pharmacokinetics in rats; both sexes, SD, rat, plasma, po, gavage 5-50 mg/kg, read-out: MRTINF_obs)?
A: 4.92 to 6.96 h

Q: And the bioavailability (Pharmacokinetics in rats; both sexes, SD, rat, plasma, po, gavage 5-50 mg/kg, read-out: Oral bioavailability (F))?
A: 39.1 to 42.1%

Q: What about the Tmax (Pharmacokinetics in rats; both sexes, SD, rat, plasma, po, single gavage 5, 20, 50 mg/kg) of the same compound?
A: 0.25 to 2 h

Q: What about the “AUC0-24h increase day 7 vs day 1” value (Pharmacokinetics in rats; males, 20 mg/kg once daily 7 days) of the same compound?
A: 47.3%

Q: What about the MTD ([5]; female, females) of the same compound?
A: 500 mg/kg

Q: What about the MTD ([5]; male, males) of the same compound?
A: 250 mg/kg

Q: And the “Kidney: urea” value (SD rats [6])?
A: elevated urea

Q: What about the AUC(0-t) ([7]; female, females 60 mg/kg) of the same compound?
A: 122 µg·h/mL

Q: What about the Cmax ([7]; female, females 60 mg/kg) of the same compound?
A: 14900 ng/mL

Q: And the AUC(0-t) ([7]; male, males 30 mg/kg)?
A: 111 µg·h/mL

Q: What about the Cmax ([7]; male, males 30 mg/kg) of the same compound?
A: 8160 ng/mL

Q: And the “STD10” value (SD rats [8]; female SD rats, GLP long toxicity study)?
A: 60 mg/kg

Q: And the STD10 (SD rats [8]; females, 28 days)?
A: 60 mg/kg

Q: And the “STD10” value (SD rats [8]; male SD rats, GLP long toxicity study)?
A: 30 mg/kg

Q: And the STD10 (SD rats [8]; males, 28 days)?
A: 30 mg/kg

Q: What about the “Electrolyte abnormalities (blood PK)” value (SD rats [8]; [14]) of the same compound?
A: ? Abnormalities such as blood PK were found in the preclinical SD rat and Beagle repeated administration test of this product, and the relevant regulations were carried out in consideration of the fact that similar mechanism of action drugs have been reported.

Q: What about the “Plasma protein: TP, ALB, A/G” value (SD rats [8]; [14]) of the same compound?
A: ? TP, ALB, A/G were abnormal in the repeated administration test of preclinical SD rats of this product, and considering that drugs with similar mechanisms of action have been reported, relevant provisions are made.

Q: And the “TG (hyperlipidemia)” value (SD rats [8]; [14])?
A: ? TG is abnormal in the repeated administration test of preclinical SD rats of this product, and considering that drugs with similar mechanisms of action have been reported, relevant provisions are made.

Q: What about the “Bleeding tendency: gastric mucosa and ileum findings” value (SD rats [8]; preclinical SD rats, repeated dosing) of the same compound?
A: ? This drug was found to have gastric mucosal reddening and ileal discolouration in preclinical SD rats and Beagle dogs in repeated dosing tests, so the relevant provisions were made.

Q: And the “Kidney: creatinine” value (SD rats [8]; repeat dose study in SD rats)?
A: elevated creatinine

Q: What about the “Dose at which micronucleus test positive” value (rat bone marrow cells; female rats) of the same compound?
A: ≥ 300 mg/kg/day

Q: And the “Dose at which micronucleus test positive” value (rat bone marrow cells; male rats)?
A: ≥ 100 mg/kg/day
